Experimental data reported in patent US20090186929A1, “Method and agent for inducing apoptosis/cell death in leukemia cells” (U.S. DEPARTMENT OF VETERANS AFFAIRS, priority 2003, published 2009).
Counter-ions that a name gives are not always drawn. Like-named read-outs stand apart in the source and are kept apart here. Each block holds one compound with its values, some of them ahead of it.

Experiments:
purified human NOS1 = target: T1, purified human NOS1 (Homo sapiens, UniProt P29475); experiment: Inhibition of purified NOS1 enzyme activity; type: biochemical; conditions: mean ± SEM, N = 3
T1 construct: determined using purified recombinant full-length human NOS1 and NOS2
Description: (§1) The NOS1 and NOS2 IC50's and Kd's for each NOS inhibitor were determined using purified recombinant full-length human NOS1 and NOS2. The cLogP value for each NOS inhibitor was determined using the CLOGP computer program (BioByte, Claremont, Calif.). […] Linear regression was used to examine the correlation between the IC50, Kd and cLogP values and ED50 values.
(§2) We determined the dissociation constant for NOS inhibitor binding (Kd) to purified recombinant and NOS2.

purified human NOS2 = target: T2, purified human NOS2 (Homo sapiens, UniProt P35228); experiment: Inhibition of purified NOS2 enzyme activity; type: biochemical; conditions: mean ± SEM, N = 3
T2 construct: determined using purified recombinant full-length human NOS1 and NOS2
Description: as §1, §2

CLL cells [1] = experiment: Cytotoxicity of NOS inhibitors for CLL cells in vitro (MTS assay); conditions: for EC50: read-out: Mean ED50 ± S.E.M. (CLL cell cytotoxicity)
Source text: We worked to optimize the culture of CLL cells (Reference 86). […] These were all tested with and without albumin, fetal bovine serum, human serum, glutamine, insulin, transferrin, selenium, and mercaptoethanol.
Toxicity could be detected by disappearance of cells from the culture (reduction in overall cell number), uptake of trypan blue, propidium iodide uptake (flow cytometry), MTS (4,5-dimethylthiazol-2-yl)-5-(3-carboxymethoxyphenyl)-2-(4-sulfophenyl)-2H-tetrazolium, inner salt) assay (cellular respiration), and several parameters of apoptosis [annexin V assay, DNA content […], and TUNEL assay].

[2] = test system: freshly-isolated CLL cells; experiment: Exogenous NO donors and drugs on freshly-isolated CLL cells (apoptosis and death); type: cell-based, human; conditions: for NO / DETA-NO interaction with the agent's activity on CLL cells: combination of the agent with NO donor
Source text: We next wanted to examine CLL cells. These malignant cells differ in many ways from ANLL and normal hematopoietic. In addition to their different lineage, they are unique in that they have a very low […], exist primary in the G0 phase of the cell cycle, and have defective apoptosis.

[3] = target: T3, purified recombinant rat NOS1 oxygenase domain (Rattus norvegicus, UniProt P29476); experiment: NOS inhibitor binding (Kd) to NOS1
T3 construct: purified recombinant rat NOS1 oxygenase domain

[4] = target: T4, purified recombinant human NOS2 oxygenase domain (Homo sapiens, UniProt P35228); experiment: NOS inhibitor binding (Kd) to NOS2
T4 construct: purified recombinant human NOS2 oxygenase domain
Description: […] The cLogP value for each NOS inhibitor was determined using the CLOGP computer program (BioByte, Claremont, Calif.). […] Linear regression was used to examine the correlation between the IC50, Kd and cLogP values and ED50 values.
as §2

HL-60 and U937 cells = experiment: NO donor inhibition of leukemia cell and colony growth; type: cell-based, human
Source text: To more closely examine the mechanism of toxicity for myeloid leukemia cells, we did work to determine whether the rate of NO delivery affected its growth inhibition of acute nonlymphocytic leukemia cells. We also wanted to determine whether the NO inhibition of cell growth is associated induction of apoptosis. We treated HL-60 and U937 cells with three compounds that generate the same amount of NO but different rates. […] Furthermore, NO-induced growth inhibition was associated with apoptosis in a rate and concentration-dependent fashion (Reference 39).

normal human BM cells = experiment: NO drugs on colony formation of normal human BM cells; type: cell-based; conditions: for Development of marrow colonies: methylcellulose with erythropoietin and colony stimulating factors
Description: The effects of NO on the growth and differentiation of normal human BM cells were analyzed (Reference 85). We felt that normal hematopoietic cells, like malignant hematopoietic cells, would be affected by NO. […] NO reduced formation of BFU-E (burst forming unit-erythroid), CFU-E, CFU-GM (colony forming unit-granulocyte/macrophage), and CFU-M (colony forming unit-macrophage). […] In retrospect, we think that the increase in CFU-GM by NO from SNP may be due to alterations in apoptosis secondary to changes in bcl-2 or caspases. None of the noted inhibitions were related to cGMP (cyclic-guanosine monophosphate).

[5] = test system: HL-60 myeloblastic leukemia cells; experiment: NO drugs on growth of HL-60 myeloblastic leukemia cells; type: cell-based, human; conditions: NO delivered from the drug
Source text: While studying NO and macrophages progressed in the late 1980s, we hypothesized that NO produced in the BM (bone marrow) would be a modulator of normal and leukemic hematopoiesis. […] The differentiated cells were vacuolated, and had increased expression of nonspecific esterase, CD11b, and CD14.

[6] = 50 mg/kg in mice; cited from earlier work
CLL cells [7] = experiment: CLL cell apoptosis by Annexin V binding; type: cell-based, human
Description: Annexin V binding to CLL cells increased after CLL cell co-culture for 2-6 h.

CLL cell caspase-3 = CLL cell caspase-3 enzyme activity after culture with AR-R17477; type: cell-based, human; conditions: for Mean caspase-3 activity: 4 h culture, N = 3
[8] = MTS assay, CLL cell samples from different subjects

T2 sequence (P35228 whole entry): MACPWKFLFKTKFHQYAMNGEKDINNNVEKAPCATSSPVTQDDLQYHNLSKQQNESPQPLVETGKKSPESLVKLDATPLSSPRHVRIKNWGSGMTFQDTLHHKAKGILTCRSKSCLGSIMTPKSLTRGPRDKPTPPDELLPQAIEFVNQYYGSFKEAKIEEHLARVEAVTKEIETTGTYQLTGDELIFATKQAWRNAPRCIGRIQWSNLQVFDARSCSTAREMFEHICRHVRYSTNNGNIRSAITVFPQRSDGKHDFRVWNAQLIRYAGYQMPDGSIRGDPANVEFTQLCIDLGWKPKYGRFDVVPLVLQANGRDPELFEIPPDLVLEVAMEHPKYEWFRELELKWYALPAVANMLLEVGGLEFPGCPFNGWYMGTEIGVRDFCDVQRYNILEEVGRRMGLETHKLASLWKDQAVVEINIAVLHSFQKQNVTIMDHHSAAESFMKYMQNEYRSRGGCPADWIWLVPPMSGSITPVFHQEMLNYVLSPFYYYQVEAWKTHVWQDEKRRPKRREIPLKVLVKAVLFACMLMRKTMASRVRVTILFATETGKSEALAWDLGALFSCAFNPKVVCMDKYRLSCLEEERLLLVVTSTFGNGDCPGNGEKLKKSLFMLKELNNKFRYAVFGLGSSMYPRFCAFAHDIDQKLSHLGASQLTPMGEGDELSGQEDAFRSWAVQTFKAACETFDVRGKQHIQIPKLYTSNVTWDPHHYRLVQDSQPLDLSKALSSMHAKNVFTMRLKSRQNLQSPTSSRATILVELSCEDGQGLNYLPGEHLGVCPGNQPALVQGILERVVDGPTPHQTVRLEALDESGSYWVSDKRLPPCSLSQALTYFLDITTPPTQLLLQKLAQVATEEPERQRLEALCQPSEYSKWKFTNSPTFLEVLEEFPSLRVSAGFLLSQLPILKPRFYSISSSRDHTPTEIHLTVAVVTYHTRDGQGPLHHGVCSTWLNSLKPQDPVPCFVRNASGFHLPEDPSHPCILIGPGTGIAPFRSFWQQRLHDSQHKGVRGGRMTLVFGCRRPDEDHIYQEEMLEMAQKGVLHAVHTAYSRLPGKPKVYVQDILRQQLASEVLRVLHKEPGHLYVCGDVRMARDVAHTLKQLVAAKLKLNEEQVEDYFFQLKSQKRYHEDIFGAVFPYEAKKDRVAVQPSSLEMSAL
T3 sequence (P29476 1-720 limits assumed): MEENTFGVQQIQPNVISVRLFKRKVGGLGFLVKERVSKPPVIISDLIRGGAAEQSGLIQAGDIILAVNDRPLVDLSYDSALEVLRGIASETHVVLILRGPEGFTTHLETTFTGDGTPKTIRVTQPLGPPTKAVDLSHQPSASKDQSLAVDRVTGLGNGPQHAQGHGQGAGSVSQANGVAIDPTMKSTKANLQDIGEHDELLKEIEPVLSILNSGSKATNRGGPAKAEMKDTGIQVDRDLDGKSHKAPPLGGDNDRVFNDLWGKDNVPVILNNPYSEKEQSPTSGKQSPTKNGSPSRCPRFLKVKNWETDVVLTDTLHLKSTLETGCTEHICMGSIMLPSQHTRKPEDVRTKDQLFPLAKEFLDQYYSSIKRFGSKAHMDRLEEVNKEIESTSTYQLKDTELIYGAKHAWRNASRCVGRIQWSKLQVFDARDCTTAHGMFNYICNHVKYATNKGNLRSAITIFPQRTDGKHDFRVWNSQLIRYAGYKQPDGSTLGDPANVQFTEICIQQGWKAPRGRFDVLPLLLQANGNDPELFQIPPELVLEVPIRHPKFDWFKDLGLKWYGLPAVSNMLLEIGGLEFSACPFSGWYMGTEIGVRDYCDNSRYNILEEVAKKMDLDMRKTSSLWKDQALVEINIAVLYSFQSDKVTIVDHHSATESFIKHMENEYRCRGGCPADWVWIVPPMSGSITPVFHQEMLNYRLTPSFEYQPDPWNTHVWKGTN
T4 sequence (P35228 1-504 limits assumed): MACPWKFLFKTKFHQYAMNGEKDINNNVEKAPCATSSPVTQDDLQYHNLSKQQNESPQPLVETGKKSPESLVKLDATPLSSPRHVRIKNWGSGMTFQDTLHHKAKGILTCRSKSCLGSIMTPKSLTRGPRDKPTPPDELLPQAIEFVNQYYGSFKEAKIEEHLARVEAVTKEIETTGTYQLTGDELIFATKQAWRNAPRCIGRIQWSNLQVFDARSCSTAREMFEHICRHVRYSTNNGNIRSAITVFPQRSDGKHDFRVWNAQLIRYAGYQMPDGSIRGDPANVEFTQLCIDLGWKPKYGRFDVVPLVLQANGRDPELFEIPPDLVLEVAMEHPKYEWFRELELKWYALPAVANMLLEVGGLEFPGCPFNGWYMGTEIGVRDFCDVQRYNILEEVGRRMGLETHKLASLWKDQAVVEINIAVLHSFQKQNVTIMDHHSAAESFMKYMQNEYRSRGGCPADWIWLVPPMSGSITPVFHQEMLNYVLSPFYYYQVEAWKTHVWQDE
T1 sequence (P29475 whole entry): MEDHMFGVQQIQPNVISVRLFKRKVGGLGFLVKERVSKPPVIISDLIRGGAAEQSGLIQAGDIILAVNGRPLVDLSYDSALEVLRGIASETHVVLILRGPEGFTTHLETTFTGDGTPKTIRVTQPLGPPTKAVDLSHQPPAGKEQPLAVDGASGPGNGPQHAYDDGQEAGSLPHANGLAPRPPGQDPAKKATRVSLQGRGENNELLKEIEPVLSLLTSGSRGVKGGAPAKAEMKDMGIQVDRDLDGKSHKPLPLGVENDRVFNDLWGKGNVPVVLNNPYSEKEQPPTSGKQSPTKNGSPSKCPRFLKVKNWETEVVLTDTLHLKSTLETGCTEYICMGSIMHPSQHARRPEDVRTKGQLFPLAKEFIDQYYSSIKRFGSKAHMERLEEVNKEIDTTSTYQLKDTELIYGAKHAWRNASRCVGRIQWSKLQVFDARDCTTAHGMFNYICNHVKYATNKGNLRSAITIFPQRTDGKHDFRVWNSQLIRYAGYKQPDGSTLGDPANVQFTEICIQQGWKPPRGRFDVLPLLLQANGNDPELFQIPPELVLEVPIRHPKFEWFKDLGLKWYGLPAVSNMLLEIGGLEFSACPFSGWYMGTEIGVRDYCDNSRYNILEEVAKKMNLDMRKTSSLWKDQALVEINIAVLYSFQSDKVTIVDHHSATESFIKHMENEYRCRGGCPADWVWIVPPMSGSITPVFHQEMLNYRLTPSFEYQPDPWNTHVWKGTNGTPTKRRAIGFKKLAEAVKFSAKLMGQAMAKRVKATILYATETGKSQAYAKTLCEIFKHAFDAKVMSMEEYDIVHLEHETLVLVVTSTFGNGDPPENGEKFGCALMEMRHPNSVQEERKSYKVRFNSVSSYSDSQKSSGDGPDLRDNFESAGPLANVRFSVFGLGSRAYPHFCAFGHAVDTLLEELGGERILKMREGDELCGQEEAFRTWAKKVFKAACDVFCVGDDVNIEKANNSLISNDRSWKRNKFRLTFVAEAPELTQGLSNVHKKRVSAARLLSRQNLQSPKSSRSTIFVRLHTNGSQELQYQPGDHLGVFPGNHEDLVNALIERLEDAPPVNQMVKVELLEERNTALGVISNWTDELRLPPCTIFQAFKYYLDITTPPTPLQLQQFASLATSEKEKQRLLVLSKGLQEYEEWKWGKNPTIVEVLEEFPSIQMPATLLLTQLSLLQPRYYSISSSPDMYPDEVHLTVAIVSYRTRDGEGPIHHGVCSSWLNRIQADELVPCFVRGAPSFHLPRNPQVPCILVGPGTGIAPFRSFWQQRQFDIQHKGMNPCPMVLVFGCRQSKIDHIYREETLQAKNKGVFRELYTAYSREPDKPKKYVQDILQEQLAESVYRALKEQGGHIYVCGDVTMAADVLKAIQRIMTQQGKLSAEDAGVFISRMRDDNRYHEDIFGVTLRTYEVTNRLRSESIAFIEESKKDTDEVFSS

IC50 (purified human NOS1): 7.7 ± 1.8 µM
IC50 (purified human NOS2): 1200 ± 290 µM
Compound: CCSC(=N)N [S-Ethyl ITU, S-Ethylisothiourea HBr]

IC50 (purified human NOS1): 280 ± 80 µM
IC50 (purified human NOS2): 50 ± 9.5 µM
Compound: N=C(N)NCCSSCCNC(=N)N [GED, Guanidinoethyldisulfide 2H2CO3]
EC50 (CLL cells [1]; Homo sapiens, CLL cell): 317 ± 77 µM

Compound: CC1(C)N([O])C(c2ccc(C(=O)O)cc2)=[N+]([O-])C1(C)C [carboxy-PTIO]
Cytotoxicity for CLL cells (in words) (CLL cells [1]): not cytotoxic

Compound: Nc1ccn([C@@H]2O[C@H](CO)[C@@H](O)C2(F)F)c(=O)n1 [gemcitabine]
NO / DETA-NO interaction with the agent's activity on CLL cells [2]: did not enhance the activity

Kd [3]: 0.5 µM
Kd [4]: 0.6 µM
IC50 (purified human NOS1): 0.89 ± 0.06 µM
IC50 (purified human NOS2): 17 ± 1.5 µM
Compound: COC(=O)[C@@H](N)CCCNC(N)=N[N+](=O)[O-] [L-NAME, N^G-Nitro-L-arginine-methyl ester HCl]
EC50 (CLL cells [1]; Homo sapiens, CLL cell): 7220 ± 1300 µM

Compound: CC(=N)NCc1cccc(CN)c1 [1400W, N-(3-(Aminomethyl)benzyl)acetamidine 2HCl]
EC50 (CLL cells [1]; Homo sapiens, CLL cell): 8240 ± 1880 µM

Kd [4]: 7 µM
IC50 (purified human NOS2): 146 ± 36 µM
Compound: CCCNC(=N)NCCC[C@H](N)C(=O)O [N-Propyl-L-arginine, N^5-[Imino(propylamino)methyl]-L-ornithine]

Compound: C/C1=C2/[N-][C@H]([C@H](CC(N)=O)[C@@]2(C)CCC(=O)NC[C@@H](C)OP(=O)([O-])O[C@H]2[C@@H](O)[C@@H](n3cnc4cc(C)c(C)cc43)O[C@@H]2CO)[C@]2(C)N=C(/C(C)=C3N=C(/C=C4N=C1[C@@H](CCC(N)=O)C\4(C)C)[C@@H](CCC(N)=O)[C@]\3(C)CC(N)=O)[C@@H](CCC(N)=O)[C@]2(C)CC(N)=O.[Co+3].[OH-] [hydroxycobalamin]
Cytotoxicity for CLL cells (in words) (CLL cells [1]): not cytotoxic

Compound: N=C(N)SCCc1ccc(CCSC(=N)N)cc1 [1,4 PB-ITU, S,S′-(1,4-Phenylene-bis(1,2-ethanediyl))bis-isothiourea 2HBr]
EC50 (CLL cells [1]; Homo sapiens, CLL cell): 321 ± 38.9 µM

IC50 (purified human NOS1): 0.092 ± 0.002 µM
IC50 (purified human NOS2): 0.054 ± 0.001 µM
Compound: CC1CCN=C(N)S1 (stereo not shown) [AMT, 2-Amino-5,6-dihydro-6-methyl-4H-1.3-thiazine HCl]

Compound: NCCN(CCN)/[N+]([O-])=N/O [DETA-NO, (Z)-1-[N-(2-aminoethyl)-N-(2-ammonioethyl)amino]diazen-1-ium-1,2-diolate-NO]
Interaction of DETA-NO with fludarabine in killing CLL cells ([2]; combination with fludarabine): acted synergistically
Inhibition of leukemia cell and colony growth (HL-60 and U937 cells): most potent inhibitor

Compound: CSC(=N)N [S-Methyl ITU, S-methylisothiourea sulfate]
EC50 (CLL cells [1]; [8]): 3080 ± 423 µM

Kd [3]: 0.7 µM
Kd [4]: 0.5 µM
IC50 (purified human NOS1): 47 ± 1.2 µM
IC50 (purified human NOS2): 2.1 µM
Compound: CC(=N)NCCCC[C@H](N)C(=O)O [L-NIL, L-N^6-(1-Iminoethyl)-lysine]

Compound: CCc1c2c(nc3ccc(O)cc13)-c1cc3c(c(=O)n1C2)COC(=O)[C@]3(O)CC [SN-38]
NO / DETA-NO interaction with the agent's activity on CLL cells [2]: did not enhance the activity

Compound: NCCNCCN [DETA]
Effect on CLL cell apoptosis and death [2]: had no effects

Compound: [NH-]c1c[n+](N2CCOCC2)no1 [SIN-1]
Development of marrow colonies (normal human BM cells): inhibited development of marrow colonies
Growth of HL-60 cells [5]: potently inhibited the growth

Kd [3]: 0.1 µM
Kd [4]: 0.5 µM
IC50 (purified human NOS1): 7.8 ± 2.5 µM
IC50 (purified human NOS2): 1500 ± 240 µM
Compound: CCSC(=N)Nc1ccc(C(F)(F)F)cc1 [ETPI, S-Ethyl-N-[4-(trifluoromethyl)phenyl]isothiourea HCl]
EC50 (CLL cells [1]; Homo sapiens, CLL cell): 129 ± 20 µM

Compound: O=[N+]([O-])c1cccc2c(Br)n[nH]c12 [3-Bromo-7-NI, 3-Bromo-7-nitroindazole]
EC50 (CLL cells [1]; Homo sapiens, CLL cell): 225 ± 20 µM

IC50 (purified human NOS1): 4.7 ± 0.8 µM
IC50 (purified human NOS2): 1.6 ± 0.3 µM
Compound: N=C(N)SCCc1cccc(CCSC(=N)N)c1 [1,3 PB-ITU, S,S′-(1,3-Phenylene-bis(1,2-ethanediyl))bis-isothiourea 2HBr]
EC50 (CLL cells [1]; Homo sapiens, CLL cell): 293 ± 26.5 µM

Compound: O=C(O)CCCc1ccc(N(CCCl)CCCl)cc1 [chlorambucil]
NO / DETA-NO interaction with the agent's activity on CLL cells [2]: did not enhance the activity

Compound: O=c1[nH]cc(F)c(=O)[nH]1 [5-fluorouracil]
NO / DETA-NO interaction with the agent's activity on CLL cells [2]: did not enhance the activity

Compound: FC(F)(F)c1ccccc1-n1ccnc1 [TRIM, 1-(2-Trifluoromethylphenyl)imidazole]
EC50 (CLL cells [1]; Homo sapiens, CLL cell): 421 ± 61 µM
Effect on anxiety and depression [6]: effective at reducing anxiety and depression
Side effects [6]: mild motor incoordination

Compound: Mercaptoethylguanidine sodium succinate [MEG]
EC50 (CLL cells [1]; [8]): 181 ± 36.4 µM

IC50 (purified human NOS1): 140 ± 15 µM
IC50 (purified human NOS2): 1.8 ± 0.3 µM
Compound: CC(=N)NCCSCC[C@H](N)C(=O)O [GW274150, (S)-2-Amino-(1-iminoethylamino)-5-thioheptanoic acid]

Compound: S-nitrosoacetylpenicillamine [SNAP]
Erythroid and myeloid colonies (normal human BM cells; isolated CD34+ cells): inhibited
Development of marrow colonies (normal human BM cells): inhibited development of marrow colonies
Growth of HL-60 cells [5]: potently inhibited the growth

Compound: COc1nc(N)nc2c1ncn2[C@@H]1O[C@H](CO)[C@@H](O)[C@@H]1O [506U78, 2-amino-9-β-D-6-methoxy araguanine]
NO / DETA-NO interaction with the agent's activity on CLL cells [2]: synergized

IC50 (purified human NOS1): 3.8 ± 0.5 µM
IC50 (purified human NOS2): 1.9 ± 0.2 µM
Compound: N=C(N)SCCCN [S-Aminopropyl ITU, S-(3-Aminopropyl)isothiourea 2HBr]
EC50 (CLL cells [1]; Homo sapiens, CLL cell): 112 ± 45.5 µM

Compound: N=C(NCCC[C@H](N)CNCCN)N[N+](=O)[O-] [NAAANG, (4S)-N-(4-Amino-5[aminoethyl]aminopentyl)-N′-nitroguanidine 3TFA]
EC50 (CLL cells [1]; Homo sapiens, CLL cell): 5230 ± 3200 µM

IC50 (purified human NOS1): 72 ± 16 µM
IC50 (purified human NOS2): 45 ± 5.9 µM
Compound: O=[N+]([O-])c1cccc2cn[nH]c12 [7-NI, 7-Nitroindazole]
EC50 (CLL cells [1]; Homo sapiens, CLL cell): 200 ± 29 µM
Effect on anxiety and depression [6]: effective at reducing anxiety and depression
Side effects [6]: mild motor incoordination

Compound: Cl.Cl.N=C(Nc1ccc(CCNCc2cccc(Cl)c2)cc1)c1cccs1 [AR-R17477, N-(4-(2-((3-Chlorophenylmethyl)amino)ethyl)phenyl)-2-thiophecarboxamidine dihydrochloride]
ED50 ranking, FIG. 10 (CLL cells [1]; cytotoxicity for CLL cells in vitro): lowest ED50
EC50 (CLL cells [1]; [8]): 7 ± 0.7 µM
CLL cell apoptosis (CLL cells [7]): induced CLL cell apoptosis
Annexin V binding to CLL cells (CLL cells [7]; co-culture for 2-6 h): increased
Mean caspase-3 activity (CLL cell caspase-3; 5 μM): 9741 arbitrary fluorescence units
Mean caspase-3 activity (CLL cell caspase-3; 10 μM): 7474 arbitrary fluorescence units
Mean caspase-3 activity (CLL cell caspase-3; 20 μM): 8074 arbitrary fluorescence units
CLL cell caspase-3 enzyme activity (time course) (CLL cell caspase-3; co-culture for 4 to 19 h): increased
CLL cell caspase-3 enzyme activity (concentration dependence) (CLL cell caspase-3; various concentrations, 4 h): dose-dependent increase

Compound: COc1cccc2c1C(=O)c1c(O)c3c(c(O)c1C2=O)C[C@@](O)(C(=O)CO)C[C@@H]3O[C@H]1C[C@H](N)[C@H](O)[C@H](C)O1 [doxorubicin]
NO / DETA-NO interaction with the agent's activity on CLL cells [2]: did not enhance the activity
